Source: ChEMBL document CHEMBL4038308, “Lipophosphonoxins II: Design, Synthesis, and Properties of Novel Broad Spectrum Antibacterial Agents” (J Med Chem, 2017)
Values after ≈ are worked out from the molar mass of the structure shown. Active and inactive are the calls of the source. The calls are words filed in the database; no cut-off is given here.

Assays:
[1] = test system: Staphylococcus epidermidis; assay: Antibacterial activity against Staphylococcus epidermidis 8700/B after 24 hrs by microdilution method; type: functional
Pseudomonas aeruginosa [2] = assay: Induction of cytoplasmic membrane permeabilization in Pseudomonas aeruginosa CCM 3955 assessed as increase in propidium iodide fluorescence intensity at 5 mg/L by spectrofluorometric analysis; type: functional
Bacillus subtilis [3] = assay: Antibacterial activity against Bacillus subtilis after 24 hrs by microdilution method; type: functional
Lipid bilayer = assay: Binding affinity to DOPG large unilamellar vesicle assessed as carboxyfluorescein leakage at 10 mg/L after 20 secs by fluorescence-based assay relative to control
Escherichia coli [4] = assay: Antibacterial activity against Escherichia coli 16702 after 24 hrs by microdilution method; type: functional; details: Escherichia coli, 16702, 24 h
[5] = test system: Staphylococcus epidermidis; assay: Induction of cytoplasmic membrane permeabilization in Staphylococcus epidermidis 8700/B assessed as increase in propidium iodide fluorescence intensity at 5 mg/L by spectrofluorometric analysis; type: functional
TERT-RPE1 [6] = assay: Induction of apoptosis in human RPE1 cells assessed as caspase 3/7 activation up to 80 mg/L after 4 hrs by caspase-Glo 3/7 luminescent assay; type: cell-based; details: tert-rpe1, 4 h
Pseudomonas aeruginosa [7] = assay: Antibacterial activity against Pseudomonas aeruginosa 16575 after 24 hrs by microdilution method; type: functional; details: Pseudomonas aeruginosa, 16575, 24 h
Salmonella enteritidis = assay: Antibacterial activity against Salmonella enteritidis S2-25 after 24 hrs by microdilution method; type: functional, Salmonella enterica subsp. enterica serovar Enteritidis; details: Salmonella enterica, S2-25, 24 h
Acinetobacter baumannii = assay: Antibacterial activity against Acinetobacter baumannii A3-08 after 24 hrs by microdilution method; type: functional; details: A3-08, 24 h
[8] = Chemical stability of compound at 50 to 500 mg/L at pH 8.8 after 24 hrs at room temperature by LC-MS analysis; type: physicochemical; details: buffer, pH 8.8, 24 h
Bacillus subtilis [9] = assay: Antibacterial activity against Bacillus subtilis assessed as inhibition of peptidoglycan synthesis at 2.5 mg/L after 50 mins by [3H]-N-acetylglucosamine incorporation assay; type: functional
Staphylococcus aureus [10] = assay: Bactericidal activity against Staphylococcus aureus CCM 4223 assessed as reduction in bacterial count at 25 mg/L after 5 hrs by time kill assay; type: functional
Staphylococcus aureus [11] = assay: Antibacterial activity against methicillin-resistant Staphylococcus aureus 4591 clinical isolates after 24 hrs by microdilution method; type: functional; details: Staphylococcus aureus, 4591, 24 h
[12] = test system: Stenotrophomonas maltophilia; assay: Antibacterial activity against Stenotrophomonas maltophilia S2-23 after 24 hrs by microdilution method; type: functional; details: S2-23, 24 h
Bacillus subtilis [13] = assay: Antibacterial activity against Bacillus subtilis assessed as inhibition of protein synthesis at 2.5 mg/L after 50 mins by [35S]-methionine incorporation assay; type: functional
Escherichia coli [14] = assay: Induction of cytoplasmic membrane permeabilization in Escherichia coli CCM 3954 assessed as increase in propidium iodide fluorescence intensity at 5 mg/L by spectrofluorometric analysis; type: functional
[15] = Chemical stability of compound at 50 to 500 mg/L at pH 0.18 after 24 hrs at room temperature by LC-MS analysis; type: physicochemical; details: buffer, pH 0.18, 24 h
[16] = Chemical stability of compound at 50 to 500 mg/L at pH 5 after 24 hrs at 37 degC by LC-MS analysis; type: physicochemical; details: buffer, pH 5, 24 h
Bacillus subtilis [17] = assay: Antibacterial activity against Bacillus subtilis assessed as inhibition of DNA synthesis at 2.5 mg/L after 50 mins by [3H]thymidine incorporation assay; type: functional
Burkholderia multivorans = assay: Antibacterial activity against Burkholderia multivorans after 24 hrs by microdilution method; type: functional
Staphylococcus aureus [18] = assay: Bactericidal activity against Staphylococcus aureus CCM 4223 assessed as reduction in bacterial count at 12.5 mg/L after 6 hrs by time kill assay; type: functional
Staphylococcus aureus [19] = assay: Induction of cytoplasmic membrane permeabilization in Staphylococcus aureus CCM 4223 assessed as increase in propidium iodide fluorescence intensity at 5 mg/L by spectrofluorometric analysis; type: functional
Mus musculus = assay: Toxicity in ICR mouse assessed as body weight loss up to 2000 mg/kg, po administered as single dose measured for 2 weeks; type: organism-based; details: in vivo, 336 h
[20] = test system: Staphylococcus haemolyticus; assay: Antibacterial activity against fluoroquinolne-resistant Staphylococcus haemolyticus 16568 after 24 hrs by microdilution method; type: functional; details: Staphylococcus haemolyticus, 16568, 24 h
Staphylococcus aureus [21] = assay: Antibacterial activity against Staphylococcus aureus CCM 4223 after 24 hrs by microdilution method; type: functional; details: CCM 4223, 24 h
Oryctolagus cuniculus [22] = assay: Toxicity in topically applied rabbit assessed as skin irritation measured by measuring physiological abnormalities up to 7 days post dose; details: in vivo, topical_or_ocular, 168 h
TERT-RPE1 [23] = assay: Cytotoxicity against human RPE1 cells assessed as reduction in cell viability after 48 hrs by ATPlite reagent based assay; details: tert-rpe1, 48 h
Staphylococcus aureus [24] = assay: Bactericidal activity against Staphylococcus aureus CCM 4223 assessed as reduction in bacterial count at 6.25 to 25 mg/L after 15 mins by time kill assay; type: functional
[25] = Chemical stability of compound at 50 to 500 mg/L at pH 0.18 after 24 hrs at 37 degC by LC-MS analysis; type: physicochemical; details: buffer, pH 0.18, 24 h
J774.A1 = assay: Cytotoxicity against mouse J774A.1 cells assessed as damage to cell membrane by measuring propidium iodide intake at 5 mg/L by spectrofluorometric analysis; type: cell-based
BJ = assay: Cytotoxicity against human BJ cells assessed as reduction in cell viability after 48 hrs by ATPlite reagent based assay
Escherichia coli [26] = assay: Bactericidal activity against Escherichia coli CCM 3954 assessed as reduction in bacterial count at 6.25 to 25 mg/L after 45 mins by time kill assay; type: functional
Bacillus subtilis [27] = assay: Antibacterial activity against Bacillus subtilis assessed as rupture of cell envelope at 10 mg/L after 10 mins by scanning electron microscopic analysis; type: functional
Streptococcus agalactiae = assay: Antibacterial activity against Streptococcus agalactiae after 24 hrs by microdilution method; type: functional
Oryctolagus cuniculus [28] = assay: Toxicity in topically applied rabbit assessed as skin irritation measured up to 14 days post dose; details: in vivo, topical_or_ocular, 336 h
[29] = Chemical stability of compound at 50 to 500 mg/L at pH 5 after 24 hrs at room temperature by LC-MS analysis; type: physicochemical; details: buffer, pH 5, 24 h
[30] = Apparent permeability across apical to basolateral side in human Caco2 cells at 200 uM after 3 hrs by LC-MS analysis; type: ADME, cell-based; details: caco-2, 3 h
TERT-RPE1 [31] = assay: Cytotoxicity against human RPE1 cells assessed as disruption of cell membrane integrity at >80 mg/L after 4 hrs by CytoTox-ONE-based assay; details: tert-rpe1, 4 h
Escherichia coli [32] = assay: Antibacterial activity against Escherichia coli CCM 3954 after 24 hrs by microdilution method; type: functional; details: CCM 3954, 24 h
HepG2 = assay: Cytotoxicity against human HepG2 cells assessed as reduction in cell viability after 48 hrs by ATPlite reagent based assay; details: hepg2, 48 h
Enterococcus faecalis = assay: Antibacterial activity against Enterococcus faecalis CCM 4224 after 24 hrs by microdilution method; type: functional; details: CCM 4224, 24 h

CCCCCCCCCCCCCCOP(=O)(CCN(CCCN)CCCN)OC[C@H]1O[C@@H](n2ccc(=O)[nH]c2=O)[C@H](O)[C@@H]1O (some centres not stated)
MIC [1]: 1.56 µg/mL (≈ 2.36 µM)
Activity (Pseudomonas aeruginosa [2]): Active
MIC (Bacillus subtilis [3]): 0.78 µg/mL (≈ 1.18 µM)
Activity (Lipid bilayer): Active
MIC (Escherichia coli [4]): 3.13 µg/mL (≈ 4.73 µM)
Activity [5]: Active
Activity (TERT-RPE1 [6]): Non-Toxic
MIC (Pseudomonas aeruginosa [7]): 1.56 µg/mL (≈ 2.36 µM)
MIC (Salmonella enteritidis): 3.13 µg/mL (≈ 4.73 µM)
MIC (Acinetobacter baumannii): 12.5 µg/mL (≈ 18.9 µM)
Stability [8]: Stable
inhibition (Bacillus subtilis [9]): inactive
Activity (Staphylococcus aureus [10]): Active
MIC (Staphylococcus aureus [11]): 6.25 µg/mL (≈ 9.44 µM)
MIC [12]: 12.5 µg/mL (≈ 18.9 µM)
inhibition (Bacillus subtilis [13]): inactive
Activity (Escherichia coli [14]): Active
Stability [15]: Stable
Stability [16]: Stable
inhibition (Bacillus subtilis [17]): inactive
MIC (Burkholderia multivorans): 50 µg/mL (≈ 75.5 µM)
Activity (Staphylococcus aureus [18]): Active
Activity (Staphylococcus aureus [19]): Active
Activity (Mus musculus): Non-Toxic
MIC [20]: 1.56 µg/mL (≈ 2.36 µM)
MIC (Staphylococcus aureus [21]): 6.25 µg/mL (≈ 9.44 µM)
Activity (Oryctolagus cuniculus [22]): Non-Toxic
Activity (TERT-RPE1 [23]): 43 mg/L
Activity (Staphylococcus aureus [24]): Active
Stability [25]: Stable
Activity (J774.A1): Non-Toxic
Activity (BJ): 30.7 mg/L
Activity (Escherichia coli [26]): Active
Activity (Bacillus subtilis [27]): Active
MIC (Streptococcus agalactiae): 3.13 µg/mL (≈ 4.73 µM)
Activity (Oryctolagus cuniculus [28]): Non-Toxic
Stability [29]: Stable
permeability [30]: Impermeable
Activity (TERT-RPE1 [31]): Non-Toxic
MIC (Escherichia coli [32]): 6.25 µg/mL (≈ 9.44 µM)
Activity (HepG2): 40.3 mg/L
MIC (Enterococcus faecalis): 25 µg/mL (≈ 37.8 µM)
